Consider five molecules from ChEMBL document CHEMBL1122103 (J Med Chem, 1982).

Structures are written as SMILES.

Assay [1] has as its system L1210. Nature of the assay: In vitro for antitumor activity against L1210 leukemia in mice at a dose of 144 mg/Kg(sc) was reported as maximum survival time. The assay is classed as functional, Mus musculus.
Assay [2] relates to Ehrlich. Nature of the assay: In vitro membrane transport activity in Ehrlich cells in rodent. The format is functional, cell-based. Particulars: Mus musculus.
Assay [3] concerns the target Dihydrofolate reductase (Lactobacillus casei, UniProt P00381). Nature of the assay: In vitro inhibition of Dihydrofolate reductase activity against Lactobacillus casei enzyme. The format is functional, Lacticaseibacillus casei.
For assay [4], the system named is Lacticaseibacillus casei. Nature of the assay: In vitro antibacterial activity against Lactobacillus casei (ATCC 7469). The assay is classed as functional, organism-based.
In assay [5] the test system is Enterococcus faecium. Put plainly: In vitro antibacterial activity against Streptococcus faecium (ATCC 8043). The format is functional, organism-based.
Assay [6] deals with L1210. Nature of the assay: In vitro for antitumor activity against L1210 leukemia in mice at a dose of 144 mg/Kg(sc) was reported as weight at termination of the therapy. The format is functional, Mus musculus.
For assay [7], the system named is Lacticaseibacillus casei. Nature of the assay: In vitro antibacterial activity against MTX-resistance Lactobacillus casei. The format is functional, organism-based.
The target in assay [8] is T1, Thymidylate synthase (Lactobacillus casei, UniProt P00469).
T1 sequence (P00469 whole entry): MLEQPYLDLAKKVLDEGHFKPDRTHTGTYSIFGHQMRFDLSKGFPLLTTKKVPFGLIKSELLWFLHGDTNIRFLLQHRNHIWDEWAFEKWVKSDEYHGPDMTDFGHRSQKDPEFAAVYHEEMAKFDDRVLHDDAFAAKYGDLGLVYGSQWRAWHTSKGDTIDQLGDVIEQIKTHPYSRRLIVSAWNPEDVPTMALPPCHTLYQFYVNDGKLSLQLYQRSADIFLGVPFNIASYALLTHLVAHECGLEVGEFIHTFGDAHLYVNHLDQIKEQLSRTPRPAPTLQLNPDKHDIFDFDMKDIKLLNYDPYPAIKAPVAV
Nature of the assay: In vitro inhibition of activity against Lactobacillus casei enzyme thymidylate synthase. The assay is classed as functional, Lacticaseibacillus casei.

Assay [9] deals with L1210. Put plainly: In vitro for antitumor activity against L1210 leukemia in mice at a dose of 144 mg/Kg(sc) was reported as percentage increase in life span. Conditions: Mus musculus. The assay is classed as functional.
Assay [10] has as its system L1210. Put plainly: (§1) In vitro membrane transport activity in L1210 cells in rodent. The assay is classed as functional, Mus musculus.
Assay [11] has as its system Enterococcus faecium. Put plainly: In vitro antibacterial activity against MTX-resistant Streptococcus faecium. The assay is classed as functional, organism-based.
The species entered for assay [12] is Mus musculus. Put plainly: In vitro membrane transport activity in neoplastic epithelial cells of rodent gut. The format is functional, cell-based. Conditions: Epithelial cell.
The species entered for assay [13] is Mus musculus. Nature of the assay: In vitro membrane transport activity in S180 ascites tumor in rodent. The format is functional.
The target of assay [14] is T2, Dihydrofolate reductase (Mus musculus, UniProt P00375).
T2 sequence (P00375 whole entry): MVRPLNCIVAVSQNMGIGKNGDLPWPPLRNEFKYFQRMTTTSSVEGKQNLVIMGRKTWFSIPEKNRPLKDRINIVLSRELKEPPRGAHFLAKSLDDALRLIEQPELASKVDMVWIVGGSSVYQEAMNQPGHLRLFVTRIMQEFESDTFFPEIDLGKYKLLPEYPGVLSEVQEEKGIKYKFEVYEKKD
Nature of the assay: In vitro inhibitory activity against L1210 dihydrofolate reductase in rodent neoplastic cells.

Assay [15] concerns L1210. Put plainly: In vitro inhibition of L1210 cell growth in rodent neoplastic cells. Particulars: Mus musculus. The assay is classed as functional, cell-based.
Assay [16] deals with L1210. The description is as §1. The format is functional, cell-based. Conditions: Mus musculus.
The test system of assay [17] is L1210. Put plainly: In vitro for antitumor activity against L1210 leukemia in mice at a dose of 288 mg/kg (s.c.) was reported as percentage increase in life span. The assay is classed as functional. Conditions: Mus musculus, L1210, sc.
The test system of assay [18] is L1210. Nature of the assay: In vitro for antitumor activity against L1210 leukemia in mice at a dose of 288 mg/Kg(sc) was reported as weight at termination of the therapy. The format is functional, Mus musculus.
Assay [19] relates to L1210. Put plainly: In vitro for antitumor activity against L1210 leukemia in mice at a dose of 288 mg/Kg(sc) was reported as maximum survival time. The format is functional, Mus musculus.
The nature of assay [20]: In vitro for antitumor activity against S180 Ascites tumor in mice at a dose of 36 mg/Kg (sc) was reported as weight at termination of the therapy. The assay is classed as functional, Mus musculus.
A short description of assay [21]: In vitro antitumor activity against S180 Ascites tumor in mice at a dose of 288 mg/Kg (sc) was reported as maximum survival time. The assay is classed as functional, Mus musculus.
For assay [22], the system named is L1210. Nature of the assay: In vitro for antitumor activity against L1210 leukemia in mice at a dose of 288 mg/Kg(sc) was reported as percentage increase in life span. The format is functional. Conditions: Mus musculus.
Assay [23] in a line: In vitro for antitumor activity against S180 Ascites tumor in mice at a dose of 288 mg/Kg (sc) was reported as percentage increase in life span. Conditions: Mus musculus, S-180, sc. The format is functional.
Assay [24] in a line: In vitro for antitumor activity against S180 Ascites tumor in mice at a dose of 288 mg/Kg (sc) was reported as weight at termination of the therapy. The format is functional, Mus musculus.
Assay [25] can be described thus: In vitro for antitumor activity against S180 Ascites tumor in mice at a dose of 36 mg/Kg (sc) was reported as percentage increase in life span. Conditions: Mus musculus, S-180, sc. The assay is classed as functional.
Assay [26] can be described thus: In vitro antitumor activity against S180 Ascites tumor in mice at a dose of 36 mg/Kg (sc) was reported as maximum survival time. The assay is classed as functional, Mus musculus.
The test system of assay [27] is L1210. Put plainly: In vitro for antitumor activity against L1210 leukemia in mice at a dose of 15 mg/Kg(sc) was reported as weight at termination of the therapy. The format is functional, Mus musculus.
Assay [28] in a line: In vitro for antitumor activity against S180 Ascites tumor in mice at a dose of 6 mg/Kg (sc) was reported as percentage increase in life span. The assay is classed as functional. Particulars: Mus musculus, S-180, sc.
A short description of assay [29]: In vitro for antitumor activity against S180 Ascites tumor in mice at a dose of 6 mg/Kg (sc) was reported as weight at termination of the therapy. The format is functional, Mus musculus.
Assay [30] has as its system L1210. Nature of the assay: In vitro for antitumor activity against L1210 leukemia in mice at a dose of 15 mg/Kg(sc) was reported as maximum survival time. The format is functional, Mus musculus.
The subject of assay [31] is L1210. Nature of the assay: In vitro for antitumor activity against L1210 leukemia in mice at a dose of 15 mg/Kg(sc) was reported as percentage increase in life span. The format is functional. Conditions: Mus musculus.
Assay [32] in a line: In vitro antitumor activity against S180 Ascites tumor in mice at a dose of 15 mg/Kg (sc) was reported as maximum survival time. The format is functional, Mus musculus.
A short description of assay [33]: In vitro antitumor activity against S180 Ascites tumor in mice at a dose of 6 mg/Kg (sc) was reported as maximum survival time. The format is functional, Mus musculus.
The nature of assay [34]: In vitro for antitumor activity against S180 Ascites tumor in mice at a dose of 15 mg/Kg (sc) was reported as weight at termination of the therapy. The assay is classed as functional, Mus musculus.
Assay [35] in a line: In vitro for antitumor activity against S180 Ascites tumor in mice at a dose of 15 mg/Kg (sc) was reported as percentage increase in life span. Conditions: Mus musculus, S-180, sc. The assay is classed as functional.

Chain of Dihydrofolate reductase (Lactobacillus casei, UniProt P00381) (P00381 whole entry): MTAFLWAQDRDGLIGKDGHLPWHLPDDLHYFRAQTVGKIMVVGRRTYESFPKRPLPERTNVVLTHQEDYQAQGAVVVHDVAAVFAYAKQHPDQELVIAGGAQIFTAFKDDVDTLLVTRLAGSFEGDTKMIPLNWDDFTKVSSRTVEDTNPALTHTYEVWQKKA

Take `CCCCCCCCN(Cc1cnc2nc(N)nc(N)c2n1)c1ccc(C(=O)NC(CCC(=O)O)C(=O)O)cc1` (stereo unspecified): in assay [1], the MST amounted to 8.1 days. Moreover, the Km was determined as 1.3 µM in assay [2], 1290 µM in assay [12], 1.8 µM in assay [13] and 5.6 µM in assay [16]. Besides, the IC50 was 12 nM in [3]; 17 nM in [4]; 410 nM in assay [5]; over 10 mM in [7]; over 80 µM in assay [8]; 0.67 mM in assay [11]. In addition, the IC50 in assay [15] came out at 217 nM. Also, the Weight at term in assay [6] was found to be 22.7 g. This molecule registered an ILS at 144 mg/kg in assay [9] of 16%. Moreover, the k in assay [10] is 0.89 min⁻¹. In addition, the affinity in assay [14] corresponds to a Ki of 17.5 nM.
For `CCCN(Cc1cnc2nc(N)nc(N)c2n1)c1ccc(C(=O)NC(CCC(=O)O)C(=O)O)cc1` (stereo unspecified), the ILS at 288 mg/kg in assay [17] was 133%. Also, the Km amounted to 4.2 µM in assay [2], 422 µM in assay [12], 3.5 µM in assay [13] and 3.2 µM in assay [16]. This molecule gave a Weight at term in [18] of 21.3 g. Also, the MST in assay [19] is 15.8 days. In assay [10], the k worked out at 0.26 min⁻¹. Besides, the Ki in [14] came to 0.003 nM. In addition, the IC50 in assay [15] turned out to be 2.2 nM.
As to `C#CCN(Cc1cnc2nc(N)nc(N)c2n1)c1ccc(C(=O)NC(CCC(=O)O)C(=O)O)cc1` (stereo unspecified), the Km in [2] was 2.4 µM; in [12], 385 µM; in assay [13], 2.1 µM; in assay [16] it was 3.2 µM. For the same molecule, the IC50 in assay [3] is 10 nM; in [4], 14 nM; in [5], 210 nM; in assay [7], over 10 mM; in assay [8] it was 20 µM; in assay [11], over 10 mM. The IC50 in [15] is 1.4 nM. Further, the results for the Weight at term in assay [20], in [18] and in [24] were 23.9 g, 22.3 g and 22.4 g, respectively. Further, the MST in [21] worked out at 19.8 days; in [19], 16.6 days; in assay [26], 22.9 days. The ILS at 288 mg/kg in assay [22] was determined as 143%; in assay [23], 67%. This molecule showed a k in assay [10] of 0.26 min⁻¹. The molecule also came in with an ILS at 36 mg/kg in assay [25] of 129%. Moreover, affinity in assay [14] was put at a Ki of 0.5 nM.
As to `CN(Cc1cnc2nc(N)nc(N)c2n1)c1ccc(C(=O)N[C@@H](CCC(=O)O)C(=O)O)cc1` [METHOTREXATE], the Km in [2] is 10.1 µM; in [12], 339 µM; in assay [13] it was 11.4 µM; in [16], 3.7 µM. The IC50 in [4] is 13 nM; in [5], 90 nM; in [7], over 10 mM; in assay [11] it was 7.2 mM. For the same molecule, the Weight at term in assay [27] is reported as 19.8 g; in [29] it was 24.1 g; in assay [34], 24.4 g. Further, the ILS at 6 mg/kg in assay [28] is 78%. Further, the MST in [30] is 17.1 days; in assay [32], 21.4 days; in assay [33], 17.8 days. Moreover, the ILS at 15 mg/kg was 152% in assay [31] and 82% in [35]. Besides, in [10], the k was found to be 0.23 min⁻¹.
As for `Nc1nc(N)c2nc(CNc3ccc(C(=O)N[C@@H](CCC(=O)O)C(=O)O)cc3)cnc2n1` [AMINOPTERIN], the Km in assay [2] amounted to 2.1 µM; in [16], 1.3 µM. The molecule further yielded a k in assay [10] of 0.21 min⁻¹. Affinity in assay [14] was put at a Ki of 0.004 nM. The IC50 in assay [15] is 1.2 nM.

For orientation: Km means the substrate concentration at which the rate is half of its maximum. One may read the IC50 as the concentration that inhibits the measured activity by half. A lower IC50 goes with greater potency. For orientation: ILS means how much longer treated animals lived than controls. As a reminder, the Ki is a dissociation constant, usually derived from enzyme kinetics or from competition with a known ligand.
